Patent publication US12473262B2, “Aryl hydrocarbon receptor activators” (Oregon State University, priority 2019, dated 2025)
Where two headings read alike, the source gives them in different places.

Experiments:
[1] = biological target: aryl hydrocarbon receptor (AhR) (Mus musculus (Mouse), UniProt P30561); experiment: AhR ligand screening: AhRE-luciferase reporter in transfected Hepa1 cells; type: cell-based; details: for Fold @ 1 nM: fold change of luciferase expression at 1 nM test compound relative to vehicle (0.1% DMSO); for Fold @ 100 nM: fold change of luciferase expression at 100 nM test compound relative to vehicle (0.1% DMSO); for Fold @ 10 uM: fold change of luciferase expression at 10 uM test compound relative to vehicle (0.1% DMSO); for Fold relative to benchmark @ 100 nM: luciferase expression at 100 nM test compound relative to 100 nM benchmark compound 11-cl-BBQ
Summary of the method: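 Values are fold luciferase induction relative to vehicle (0.1% DMSO), read by luminometry of lysates from Hepa1 cells carrying an AhRE-driven luciferase reporter. Cells were seeded at 1×10^4 per well, grown overnight and treated with compound before lysis.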

CYP-2B6 = CYP-2B6 (Homo sapiens (Human), UniProt P20813); experiment: CYP panel profile: P450 inhibition, CYP-2B6; type: in vitro ADME; details: human liver microsomes
Experimental: (§1) 5. CYP Panel Profile: P450 Inhibition
(§2) From 10 mM stock solutions of test compounds, a dilution plate was prepared diluting serially starting from 5 mM up to 2 μM in Acetonitrile/DMSO or Methanol/DMSO Human liver Microsomes were added at required concentration as per specific CYP isoform in a deep well assay plate (1A2, 2C9, 2D6, 2B6, 2C8, 2C19, and 3A4). Compounds were spiked in all wells from dilution plate at final concentrations starting from 50 μM up to 0.02 μM, except for positive and negative control. Specific substrate were added to all wells and reactions were pre-incubated for 10 min. To start reactions, NADPH was added to all wells at 1 mM final concentration. Assay plate was mixed by vortexing and incubated at 37° C. for […] for 3A4.20 min for (1A2, 2C9, 2B6, 2C8, 2D6) and […] for 2C19. A quencher with chilled acetonitrile suitable internal standard was added. Samples were centrifuged and supernatants were collected and subjected to LC-MS/MS analysis for determination.

CYP-2C8 = CYP-2C8 (Homo sapiens (Human), UniProt P10632); experiment: CYP panel profile: P450 inhibition, CYP-2C8; type: in vitro ADME; details: human liver microsomes
Experimental: as §1, §2

[2] = Liver microsomal stability, mouse; details: for Rem @ MLM × 30 min: mouse liver microsomes, 1 μM compound, 0.5 mg/ml protein; for half-life at 1 μM / microsomal CLint at 1 μM: mouse, liver microsomes, pH 7.4
Experimental: (§3) The assessment of metabolic stability of testing compounds was performed using human, mouse, rat, dog and monkey liver microsomes (20 mg protein/ml). Each reaction mixture contained 42.5 μL of 0.1 M potassium phosphate buffer pH 7.4, containing respective LM protein (final concentration 0.5 mg/ml). 2.5 μL of the compound stock solution was added in it (1 μM final concentration). The reaction was initiated by the addition of 5 μL NADPH solution (final Concentration 1 mM). At different time points (0, 5, 15, and 30 minutes), samples were quenched with 200 μL of cold acetonitrile containing ISTD Propranolol. Samples were centrifuged at 3500 rpm for 20 mM at 4° C. Supernatant was subjected to LC-MS/MS analysis for quantification. Verapamil was used as a positive control.

CYP-3A4 = CYP-3A4 (Homo sapiens (Human), UniProt P08684); experiment: CYP panel profile: P450 inhibition, CYP-3A4; type: in vitro ADME; details: human liver microsomes
Experimental: as §1, §2

[3] = Liver microsomal stability, human; details: for Rem @ HLM × 30 min: human liver microsomes, 1 μM compound, 0.5 mg/ml protein; for half-life at 1 μM / microsomal CLint at 1 μM: human, liver microsomes, pH 7.4
Experimental: as §3

CYP-2C19 = CYP-2C19 (Homo sapiens (Human), UniProt P33261); experiment: CYP panel profile: P450 inhibition, CYP-2C19; type: in vitro ADME; details: human liver microsomes
Experimental: as §1, §2

[4] = Liver microsomal stability, rat; details: for Rem @ RLM × 30 min: rat liver microsomes, 1 μM compound, 0.5 mg/ml protein; for half-life at 1 μM / microsomal CLint at 1 μM: rat, liver microsomes, pH 7.4
Experimental: as §3

CYP-2D6 = CYP-2D6 (Homo sapiens (Human), UniProt P10635); experiment: CYP panel profile: P450 inhibition, CYP-2D6; type: in vitro ADME; details: human liver microsomes
Experimental: as §1, §2

CYP-1A2 = CYP-1A2 (Homo sapiens (Human), UniProt P05177); experiment: CYP panel profile: P450 inhibition, CYP-1A2; type: in vitro ADME
Experimental: as §1, §2

CYP-2C9 = CYP-2C9 (Homo sapiens (Human), UniProt P11712); experiment: CYP panel profile: P450 inhibition, CYP-2C9; type: in vitro ADME; details: human liver microsomes
Experimental: as §1, §2

[5] = In vivo PK study, intravenous and oral administration in male mice; set-up: species or system mouse; details: plasma; for C0: read-out: C0_Cmax
Experimental: In Vivo PK Study Pharmacokinetics of Exemplary Compounds 362 and 893 Following an Intravenous and Oral Administration in Male C57BL/6J Mice.
Male C57BL/6J mice, approximately 8-10 weeks old, were obtained from the vivarium of Fundación Ciencia & Vida Chile (Santiago, Chile). Dosing solution of Compound 362 for PO administration was formulated in a vehicle containing 40% DMSO, 20% Kolliphor EL, 40% Propylene Glycol at 0.8 mg/mL. Dosing solution of Compound 362 for IV administration was formulated in a vehicle containing 30% DMSO, 20% Kolliphor EL, 50% PBS at […].
Male […] mice, approximately 8-11 weeks old, 22-27 grams were obtained from the vivarium Fundación Ciencia & Vida Chile (Santiago, Chile). Animals were acclimated for a minimum period of 4 days upon arrival at the testing facility. Animals were weighed, identified by marking the tail with numbers using a non-toxic permanent marker and designated into the following treatment groups on the day of dosing:
Group 1 animals received an IV administration via caudal vein of 2 mg/kg PRXS0362 dosing solution.
Group 2 animals received a PO administration via feeding tubes (20 gauge) of 8 mg/kg PRXS0362 dosing solution.
Terminal whole blood was collected via cardiac puncture for group 1 at the following time points: 5, 10, 15, 30, 60, 120, 240, 360, and 480 minutes. Non-dosed mice were used to collect samples of zero time points. For the group 2 at the following time point: 15, 30, 60, 120, 240, 360, and 480 minutes.
Whole blood, approximately 300 μL per time point, was collected into microtainer tubes with EDTA (K2). Blood samples were centrifuged immediately at approximately 9,000 G at 4° C. for 5 minutes and plasma separated. Plasma samples were placed into individually labeled tubes and stored in a −80° C. freezer prior to LC/MS/MS analysis.
The whole brain was collected at each point only for both groups, for this the animals were euthanized with CO2, decapitated, the brain was extracted weighed, frozen in liquid nitrogen and stored at −80° C. prior to LC/MS/MS analysis.
Compound 893 was tested by the same protocol as above.

[6] = human liver microsomes, read-out: CYP-1A2 IC50

Chain of CYP-2D6 (P10635 whole entry): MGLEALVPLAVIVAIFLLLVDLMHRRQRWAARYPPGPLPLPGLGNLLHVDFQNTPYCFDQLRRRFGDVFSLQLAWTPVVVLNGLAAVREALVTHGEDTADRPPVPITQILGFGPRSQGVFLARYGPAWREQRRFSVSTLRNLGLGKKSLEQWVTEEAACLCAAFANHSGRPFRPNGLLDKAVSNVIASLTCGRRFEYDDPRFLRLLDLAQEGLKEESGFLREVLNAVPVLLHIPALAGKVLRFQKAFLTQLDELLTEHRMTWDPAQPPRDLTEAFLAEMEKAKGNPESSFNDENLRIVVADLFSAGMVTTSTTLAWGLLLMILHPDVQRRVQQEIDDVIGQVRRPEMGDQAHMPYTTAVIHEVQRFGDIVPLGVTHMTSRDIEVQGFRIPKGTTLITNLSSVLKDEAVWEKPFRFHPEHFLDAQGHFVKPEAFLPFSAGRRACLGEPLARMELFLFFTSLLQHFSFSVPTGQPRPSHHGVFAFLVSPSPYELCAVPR
Chain of CYP-2B6 (P20813 whole entry): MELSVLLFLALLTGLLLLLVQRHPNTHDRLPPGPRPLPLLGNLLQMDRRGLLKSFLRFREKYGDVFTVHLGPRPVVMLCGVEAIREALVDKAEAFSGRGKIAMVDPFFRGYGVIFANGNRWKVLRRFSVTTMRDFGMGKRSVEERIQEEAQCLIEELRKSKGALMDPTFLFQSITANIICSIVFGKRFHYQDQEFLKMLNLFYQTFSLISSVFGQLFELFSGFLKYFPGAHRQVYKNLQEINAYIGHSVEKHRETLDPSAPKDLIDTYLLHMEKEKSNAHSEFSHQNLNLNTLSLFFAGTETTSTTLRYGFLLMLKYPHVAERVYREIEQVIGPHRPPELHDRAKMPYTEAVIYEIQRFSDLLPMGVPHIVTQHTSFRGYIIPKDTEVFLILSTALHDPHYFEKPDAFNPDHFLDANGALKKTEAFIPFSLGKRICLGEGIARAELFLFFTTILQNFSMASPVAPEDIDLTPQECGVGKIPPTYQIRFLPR
Chain of CYP-2C19 (P33261 whole entry): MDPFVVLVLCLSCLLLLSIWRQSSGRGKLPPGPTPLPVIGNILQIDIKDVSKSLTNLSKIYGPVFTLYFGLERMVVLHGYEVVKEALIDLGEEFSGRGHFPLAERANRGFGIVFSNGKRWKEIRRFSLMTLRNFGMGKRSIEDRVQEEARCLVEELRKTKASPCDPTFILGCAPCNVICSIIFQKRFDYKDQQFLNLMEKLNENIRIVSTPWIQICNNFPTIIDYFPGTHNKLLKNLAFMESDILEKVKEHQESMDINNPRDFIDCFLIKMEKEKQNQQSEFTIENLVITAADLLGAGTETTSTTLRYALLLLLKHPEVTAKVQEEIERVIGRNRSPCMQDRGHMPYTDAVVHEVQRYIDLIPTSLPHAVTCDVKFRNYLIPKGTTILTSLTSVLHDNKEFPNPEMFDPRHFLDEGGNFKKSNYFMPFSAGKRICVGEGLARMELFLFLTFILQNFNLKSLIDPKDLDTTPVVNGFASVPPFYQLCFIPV
Chain of CYP-2C8 (P10632 whole entry): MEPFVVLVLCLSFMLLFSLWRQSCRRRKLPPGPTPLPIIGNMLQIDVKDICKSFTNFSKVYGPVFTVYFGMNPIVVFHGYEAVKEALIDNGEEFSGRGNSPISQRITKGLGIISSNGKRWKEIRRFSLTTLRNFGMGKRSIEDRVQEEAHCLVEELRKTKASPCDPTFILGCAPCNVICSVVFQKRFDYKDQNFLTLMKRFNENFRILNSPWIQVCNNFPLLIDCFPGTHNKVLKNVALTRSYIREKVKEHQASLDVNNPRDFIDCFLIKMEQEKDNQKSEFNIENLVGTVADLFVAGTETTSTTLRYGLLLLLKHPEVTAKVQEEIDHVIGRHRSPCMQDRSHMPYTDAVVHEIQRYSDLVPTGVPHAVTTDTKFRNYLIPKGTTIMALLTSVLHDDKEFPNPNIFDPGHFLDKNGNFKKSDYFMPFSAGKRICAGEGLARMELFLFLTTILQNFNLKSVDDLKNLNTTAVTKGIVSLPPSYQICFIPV
Chain of CYP-1A2 (P05177 whole entry): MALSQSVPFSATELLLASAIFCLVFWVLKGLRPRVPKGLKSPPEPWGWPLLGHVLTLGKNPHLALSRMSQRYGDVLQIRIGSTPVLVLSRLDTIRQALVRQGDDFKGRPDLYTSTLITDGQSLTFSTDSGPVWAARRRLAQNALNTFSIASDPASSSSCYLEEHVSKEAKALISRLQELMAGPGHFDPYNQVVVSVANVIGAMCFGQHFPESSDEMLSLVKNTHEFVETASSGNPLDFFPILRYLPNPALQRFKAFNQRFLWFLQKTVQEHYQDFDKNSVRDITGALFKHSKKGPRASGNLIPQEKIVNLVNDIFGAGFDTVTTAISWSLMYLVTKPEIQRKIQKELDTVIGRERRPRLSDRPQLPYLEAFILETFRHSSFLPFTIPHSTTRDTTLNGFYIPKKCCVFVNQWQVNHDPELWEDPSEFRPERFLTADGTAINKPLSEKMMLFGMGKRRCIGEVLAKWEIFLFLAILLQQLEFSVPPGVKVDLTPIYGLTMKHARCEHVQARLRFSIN
Chain of CYP-3A4 (P08684 whole entry): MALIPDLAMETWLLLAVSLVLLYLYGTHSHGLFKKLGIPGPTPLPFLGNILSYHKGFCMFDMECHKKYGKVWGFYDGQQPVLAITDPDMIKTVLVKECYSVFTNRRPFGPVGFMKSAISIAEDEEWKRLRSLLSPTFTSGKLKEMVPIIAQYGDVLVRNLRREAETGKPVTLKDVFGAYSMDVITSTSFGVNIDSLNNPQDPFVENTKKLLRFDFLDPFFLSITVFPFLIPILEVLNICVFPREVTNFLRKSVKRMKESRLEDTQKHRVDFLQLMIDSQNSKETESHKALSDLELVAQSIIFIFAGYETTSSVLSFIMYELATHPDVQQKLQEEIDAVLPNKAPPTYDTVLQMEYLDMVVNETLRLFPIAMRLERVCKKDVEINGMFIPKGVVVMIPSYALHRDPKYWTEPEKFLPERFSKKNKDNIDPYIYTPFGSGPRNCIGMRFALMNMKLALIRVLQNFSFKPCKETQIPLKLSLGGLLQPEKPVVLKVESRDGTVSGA
Chain of aryl hydrocarbon receptor (AhR) (P30561 10-805): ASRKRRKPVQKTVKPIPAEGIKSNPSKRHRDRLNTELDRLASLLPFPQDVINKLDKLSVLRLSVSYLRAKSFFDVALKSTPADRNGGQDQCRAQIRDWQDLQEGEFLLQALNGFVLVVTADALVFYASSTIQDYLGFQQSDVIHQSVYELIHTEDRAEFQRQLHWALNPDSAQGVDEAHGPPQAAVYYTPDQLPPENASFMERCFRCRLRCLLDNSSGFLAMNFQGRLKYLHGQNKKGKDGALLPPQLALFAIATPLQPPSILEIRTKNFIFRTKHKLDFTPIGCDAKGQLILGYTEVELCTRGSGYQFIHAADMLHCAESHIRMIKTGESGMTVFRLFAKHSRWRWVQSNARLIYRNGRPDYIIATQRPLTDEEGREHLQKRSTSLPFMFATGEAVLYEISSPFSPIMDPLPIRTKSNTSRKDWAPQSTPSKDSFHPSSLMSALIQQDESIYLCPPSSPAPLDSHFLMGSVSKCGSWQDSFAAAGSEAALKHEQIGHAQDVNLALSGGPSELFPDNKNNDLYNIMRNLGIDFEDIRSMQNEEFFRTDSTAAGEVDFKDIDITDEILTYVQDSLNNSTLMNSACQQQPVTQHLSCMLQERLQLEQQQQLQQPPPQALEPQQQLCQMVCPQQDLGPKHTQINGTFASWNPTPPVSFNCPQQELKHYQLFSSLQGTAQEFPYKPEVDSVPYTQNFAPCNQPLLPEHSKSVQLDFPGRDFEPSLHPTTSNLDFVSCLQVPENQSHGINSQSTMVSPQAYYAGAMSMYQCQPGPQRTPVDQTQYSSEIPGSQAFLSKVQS
Chain of aryl hydrocarbon receptor (AhR) (P53762 whole entry partner): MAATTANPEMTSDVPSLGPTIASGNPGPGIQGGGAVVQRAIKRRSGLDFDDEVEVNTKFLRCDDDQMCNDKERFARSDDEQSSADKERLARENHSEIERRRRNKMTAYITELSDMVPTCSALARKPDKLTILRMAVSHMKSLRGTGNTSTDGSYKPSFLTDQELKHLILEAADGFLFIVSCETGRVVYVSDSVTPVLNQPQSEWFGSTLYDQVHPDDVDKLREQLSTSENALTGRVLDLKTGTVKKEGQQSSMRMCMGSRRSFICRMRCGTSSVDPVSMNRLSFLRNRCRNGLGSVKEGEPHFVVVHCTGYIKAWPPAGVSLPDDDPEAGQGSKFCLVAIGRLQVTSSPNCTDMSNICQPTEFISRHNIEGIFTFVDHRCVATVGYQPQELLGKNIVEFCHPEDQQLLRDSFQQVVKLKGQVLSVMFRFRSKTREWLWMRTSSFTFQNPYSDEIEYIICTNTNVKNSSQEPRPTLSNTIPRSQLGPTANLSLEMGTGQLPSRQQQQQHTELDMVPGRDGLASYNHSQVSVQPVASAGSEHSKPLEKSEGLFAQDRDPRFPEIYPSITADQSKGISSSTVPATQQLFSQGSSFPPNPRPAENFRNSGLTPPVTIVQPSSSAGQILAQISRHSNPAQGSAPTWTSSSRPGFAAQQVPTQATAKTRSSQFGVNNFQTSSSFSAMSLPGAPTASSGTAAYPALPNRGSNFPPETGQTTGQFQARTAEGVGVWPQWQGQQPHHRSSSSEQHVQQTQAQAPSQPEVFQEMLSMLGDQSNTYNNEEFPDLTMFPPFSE

| Compound | Fold @ 1 nM [1] [fold] | Fold @ 100 nM [1] [fold] | Fold @ 10 uM [1] [fold] | Fold relative to benchmark @ 100 nM [1] [fold] | IC50 (CYP-2B6) [µM] | IC50 (CYP-2C8) [µM] | Rem @ MLM × 30 min [2] [%] | half-life at 1 μM [2] [min] | microsomal CLint at 1 μM [2] [µL/min/mg] | IC50 (CYP-3A4) [µM] | Rem @ HLM × 30 min [3] [%] | half-life at 1 μM [3] [min] | microsomal CLint at 1 μM [3] [µL/min/mg] | IC50 (CYP-2C19) [µM] | Rem @ RLM × 30 min [4] [%] | half-life at 1 μM [4] [min] | microsomal CLint at 1 μM [4] [µL/min/mg] | IC50 (CYP-2D6) [µM] | IC50 (CYP-1A2; [6]) [µM] | IC50 (CYP-2C9) [µM] | also measured |
| --- | --- | --- | --- | --- | --- | --- | --- | --- | --- | --- | --- | --- | --- | --- | --- | --- | --- | --- | --- | --- | --- |
| O=C(c1ccc(F)c(F)c1)n1c(-c2ccc(-c3ccccc3)cc2)nc2ccc(Cl)cc21 [Compound 644] | 1 | 1 | 2 | 0.11 | > 50 | 1.7 | 71.7 | 70.5 | 20 | > 50 | 69.8 | 77.9 | 18 | > 50 | 36.8 | 28.7 | 48 | 8.2 | 4.7 | 2.7 |  |
| O=C(C1CC1)n1c(-c2cccc3ccccc23)cc2cc(Cl)ccc21 [Compound 972] | 1 | 2 | 45 | 0.04 | 4.3 | > 48.8 | 26.7 | 15.9 | 87.1 | > 50 | 73.0 | 74.9 | 18.5 | 0.2 | 20.7 | 13.3 | 105 | > 50 | 7 | 7 |  |
| O=C(c1ccc(F)c(F)c1)n1c(-c2cccc3ccccc23)cc2cc(Cl)ccc21 [Compound 973] | 1 | 1 | 1 | 0.02 | > 50 | > 50 | 58.7 | 39.9 | 34.8 | > 50 | 34.2 | 16.7 | 83.1 | 23.1 | 46.3 | 26.5 | 52.3 | > 50 |  | > 50 | IC50 (CYP-1A2): > 50 µM |
| Clc1ccc2[nH]c(-c3cccc4ccccc34)cc2c1 [Compound 893, 5-chloro-2-(naphthalen-1-yl)-1H-indole] | 1 | 49 | 49 | 0.91 | 8 | 7.7 | 16.7 | 12.2 | 114 | 23.3 | 19.6 | 14.1 | 98.5 | 2.9 | 51.7 | 35.8 | 38.8 | 31.7 | 0.5 | 7.2 | CL_CL/F ([5]; IV 2 mg/Kg): 4.218 L/[Kg*h]; Vd_Vd/F ([5]; IV 2 mg/Kg): 8.777 L/kg; thalf ([5]; IV 2 mg/Kg): 1.442 h; CL_CL/F ([5]; PO 8 mg/Kg): 5.739 L/[Kg*h]; Vd_Vd/F ([5]; PO 8 mg/Kg): 12.846 L/kg; thalf ([5]; PO 8 mg/Kg): 1.551 h; AUC(0-inf) ([5]; mouse, IV 2 mg/Kg): 474 ng·h/mL; AUC(0-t) ([5]; mouse, IV 2 mg/Kg): 451 ng·h/mL; MRT ([5]; mouse, IV 2 mg/Kg): 2.01 h; C0 ([5]; mouse, IV 2 mg/Kg): 174 ng/mL; bioavailability ([5]; mouse, PO 8 mg/Kg vs IV 2 mg/Kg): 73.5%; AUC(0-inf) ([5]; mouse, PO 8 mg/Kg): 1390 ng·h/mL; AUC(0-t) ([5]; mouse, PO 8 mg/Kg): 1330 ng·h/mL; MRT ([5]; mouse, PO 8 mg/Kg): 2.66 h; Tmax ([5]; mouse, PO 8 mg/Kg): 1 h; C0 ([5]; mouse, PO 8 mg/Kg): 398 ng/mL |
| O=S(=O)(c1ccc(C(F)(F)F)cc1)n1c(-c2cccc3ccccc23)nc2ccc(Cl)cc21 [Compound 782] | 1 | 23 | 19 | 0.92 | > 50 | > 50 | 14.9 | 10.9 | 127 | 0.4 | 66.4 | 50.5 | 27.4 | 6 | 31.8 | 17.8 | 78 | > 50 | 47.9 | > 50 |  |
